# Measurements taken from patent US8173788B2, “Peptide having ability to activate cancer-related gene” (priority 2005, dated 2012).
# Where no end group is shown, it is not given here.
# Test system: cancer-related gene
# Assay: DNA chip analysis of cancer-related gene expression after treatment with the HPLC-purified peptide (Table 1)
# Format: cell-based, human
# Procedure: In this diagnosis method, cells or tissues of interest are treated with the peptide of the present invention as in the above-mentioned diagnosis method 1; thus the same specimen as in the diagnosis method 1 can be used. However, in this diagnosis method, the reverse transcription is conducted to generate a cDNA (first-strand cDNA) pool, which is complementary to the mRNA, by using total mRNA extracted from the cells or tissues treated with the peptide as a template and using oligo-dT primer having T7 RNA polymerase promoter region as a reverse primer. Then, after the second-strand cDNA synthesis, in vitro transcription (IVT) was conducted using T7 RNA polymerase and biotinylated rNTPs at 37° C. for 14 hr to yield biotin-labeled cRNA. The amount of the cRNA is measured with a spectrophotometer to confirm that at least […] of cRNA can be yielded.
# The diagnosis method further includes processes for bringing this cRNA labeled with fluorescence dye or the like into contact with cDNA of a cancer-related gene which is immobilized on a plate for hybridization and for measuring the fluorescence intensity.
# Thus, on the basis of the expression condition of a cancer-related gene, a tendency of canceration or malignancy of cancer can be determined.
# An increase or decrease in the expression amount of a cancer-related gene is determined by comparing the expression level in a control. The cells and tissues used as the control are the same as those used in the diagnosis method 1.
# Tables 1 and 2 show examples of cancer-related genes of which expression is increased and immune system genes of which expression is increased or decreased by the treatment with the peptide (HPLC-purified peptide) derived from cell membrane surfaces of human squamous-cell carcinoma cells UTC-8 (Deposition No.: FERM BP-08611, which is deposited with International Patent Organism Depositary, National Institute of Advanced Industrial Science and Technology).
# The present inventor has verified the validity of this diagnosis method using 55000 cancer-related genes. When such a great number of cancer-related genes are used, DNA chip technology is preferably used. In the DNA chip technology, each DNA of the cancer-related genes is immobilized so as to be arrayed on a slide; the above-mentioned labeled cRNA solution is dropped into the slide; the cRNA which is not hybridized is removed by washing; and fluorescence intensity of each gene position is detected by a scanner. The results are compared with the result which is obtained by conducting the same process using the above-mentioned control solution. Thus, cancer-related genes of which expression is increased or decreased when cells or tissues are treated with the peptide of the present invention can be exhaustively analyzed.
sequence,measurement,setting,value
"QPQFGRRMESK [HPLC-purified peptide, peptide (HPLC-purified peptide) derived from cell membrane surfaces of human squamous-cell carcinoma cells UTC-8]",Fold Change,gene AF040963 MXD4,2.357
same,Fold Change,gene D16431 HDGF,3.596
same,Fold Change,gene D26120 splicing factor 1,2.833
same,Fold Change,"gene K03218 SRC, v-src sarcoma viral oncogene homolog",3.912
same,Fold Change,gene M13150 MAS1,2.07
same,Fold Change,gene M32977 VEGF,2.457
same,Fold Change,gene M60119 HIVEP2,2.205
same,Fold Change,gene M62829 EGR1,2.105
same,Fold Change,gene M83221 RELB,2.351
same,Fold Change,gene M95712 BRAF,3.034
same,Fold Change,gene NM_000753 PDE3B,2.741
same,Fold Change,gene NM_001201 BMP3,3.736
same,Fold Change,gene NM_001402 EEF1A1,2.405
same,Fold Change,gene NM_001419 ELAVL1,2.95
same,Fold Change,gene NM_001511 CXCL1,2.477
same,Fold Change,gene NM_001570 IRAK2,2.24
same,Fold Change,gene NM_001665 ARHG,2.111
same,Fold Change,gene NM_002357 MAD,2.397
same,Fold Change,gene NM_002613 PDPK1,2.866
same,Fold Change,gene NM_002712 PPP1R7,2.697
same,Fold Change,gene NM_003017 SFRS3,2.742
same,Fold Change,gene NM_003685 KHSRP,2.04
same,Fold Change,gene NM_004204 PIGQ,2.756
same,Fold Change,"gene NM_004218 RAB11B, member RAS oncogene family",2.102
same,Fold Change,gene NM_004723 ARHGEF2,2.209
same,Fold Change,gene NM_004906 WTAP,2.544
same,Fold Change,gene NM_005207 CRKL,2.497
same,Fold Change,gene NM_005524 HES1,2.395
same,Fold Change,"gene NM_005730 CTDSP2, conserved gene amplified in osteosarcoma",2.387
same,Fold Change,gene NM_005850 SF3B4,3.023
same,Fold Change,gene NM_005937 MLLT6,2.996
same,Fold Change,gene NM_006191 PA2G4,2.002
same,Fold Change,gene NM_006318 putative glialblastoma cell differentiation-related,2.098
same,Fold Change,gene NM_006694 JTB,2.019
same,Fold Change,"gene NM_006716 ASK, activator of S phase kinase",2.23
same,Fold Change,"gene NM_006842 splicing factor 3b, subunit 2, 145 kDa",2.245
same,Fold Change,gene NM_007040 E1B-AP5,2.433
same,Fold Change,gene NM_007279 U2AF2,2.494
same,Fold Change,gene NM_012103 AUP1,2.46
same,Fold Change,gene NM_014308 P101-PI3K,2.849
same,Fold Change,gene NM_015714 G0S2,2.481
same,Fold Change,gene NM_016263 FZR1,2.466
same,Fold Change,gene U33819 MAZ,2.093
same,Fold Change,gene X03663 CSF1R,2.781
same,Fold Change,gene X54936 PGF,3.576
same,Fold Change,gene X61498 NFKB2,2.833
same,Fold Change,gene X78710 MTF1,2.001
